Data on 2 molecules can be found in publication PMC8842743 (Journal of Alzheimer's Disease Reports, 2022).

As usually defined, the IC50 is the concentration at which inhibition is half-maximal.

In assay [1] the target is T1, Renin recombinant human enzyme (Homo sapiens, UniProt P00797).
T1 sequence (P00797 67-406): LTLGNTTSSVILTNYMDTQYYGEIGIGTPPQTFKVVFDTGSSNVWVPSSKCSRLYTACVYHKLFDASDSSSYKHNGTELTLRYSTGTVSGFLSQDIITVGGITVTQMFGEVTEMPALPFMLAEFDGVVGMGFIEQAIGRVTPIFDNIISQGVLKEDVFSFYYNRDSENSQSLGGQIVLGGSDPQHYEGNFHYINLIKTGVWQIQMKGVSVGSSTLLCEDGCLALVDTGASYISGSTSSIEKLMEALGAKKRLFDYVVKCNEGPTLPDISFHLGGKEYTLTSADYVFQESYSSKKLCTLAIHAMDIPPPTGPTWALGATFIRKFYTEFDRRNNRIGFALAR
Kind of assay: Renin FRET assay. In kind it is biochemical.

The target in assay [2] is Porcine gastric mucosa pepsin (Sus scrofa, UniProt P00791). Briefly: Pepsin FRET assay. In kind it is biochemical.
A further assay has as its system Aβ. The conditions noted are these: cited from earlier work.

Porcine gastric mucosa pepsin, sequence (P00791 60-385): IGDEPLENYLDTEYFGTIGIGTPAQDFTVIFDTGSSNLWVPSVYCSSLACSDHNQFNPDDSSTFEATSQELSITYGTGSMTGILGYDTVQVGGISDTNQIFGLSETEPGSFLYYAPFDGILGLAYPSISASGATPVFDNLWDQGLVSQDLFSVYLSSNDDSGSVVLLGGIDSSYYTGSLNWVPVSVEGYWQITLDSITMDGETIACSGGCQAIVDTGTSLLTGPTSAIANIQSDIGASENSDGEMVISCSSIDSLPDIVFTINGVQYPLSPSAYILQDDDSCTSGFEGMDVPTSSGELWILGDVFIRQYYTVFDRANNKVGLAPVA

`NC1=N[C@@]2(c3cc(NC(=O)c4ccc(F)cn4)ccc3F)COC[C@H]2CS1` [LY2886721, reference compound]: the IC50 in assay [1] came to 14.1 µM; in assay [2], 77.4 µM.
As for `CN1C(=N)N[C@](C)(c2cc(NC(=O)c3ccc(F)cn3)ccc2F)CS1(=O)=O` [verubecestat], in the assay on Aβ, the “Aβ reduction explored in Phase III studies” value is “approximately 85%”.
